In article PMC9088798, “An Approach to Derive Functional Peptide Inhibitors of Transcription Factor Activity” (JACS Au, 2022):
Where no end group is shown, it is not given here.

Assays:
[1] = tested on: cJun bZIP / TRE sites in TRE-mDHFR gene; test: Transcription block survival (TBS) colony counting in E. coli; assay type: cell-based, human cJun, expressed in E. coli; details: three experimental repeats
Procedure: Figure 3 Transcription block survival (TBS) assay to derive functionally active cJun inhibitors. (A) Schematic illustrating the design and operation of TBS. (B) Controlled numbers of E. coli expressing the indicated proteins were plated on selective media and growth rates were calculated by counting colony-forming units. […] (2) A small effect on colony numbers is observed when cJun bZIP is additionally expressed. (3) TRE-mDHFR can replace the inhibited ecDHFR with colony count lower than for WT as expected. […] Although (6) cFos LZ and (7) FosW are known cJun-binders, they are unable to effectively dissociate the cJun bZIP from TRE DNA. However, (8) A-FosW and the TBS-derived hit (9) HingeW remove TRE-mDHFR transcriptional blocks to restore cell survival. Bar charts represent averages of three experimental repeats. Errors are shown as one standard deviation. Selected P values from a t-test are indicated (*P ≤ 0.05; **P ≤ 0.01; ****P ≤ 0.0001) with values for all possible comparisons within the bar chart reported in Figure S7. Serial dilutions were used to quantify colony numbers where required. Also shown are representative plate images and schematics to illustrate the effect upon TRE-mDHFR transcription. […]
Library Construction and TBS Assay: Library inserts were produced using PCR fill-in reactions from synthesised primers (Sigma) with degenerate codons at the desired positions to produce the correct residue options. The library was subcloned using SacI and AscI sites into the pET24a plasmid containing A-FosW. The primers used were cJun- […]
-3’ and cJun-Hinge-Lib_R: 5’-
-3’. The library DNA was transformed into NEB 10-beta electrocompetent E. coli cells. The following equation was utilised to determine library […]
coverage by the number of single colonies: where E is the percentage […] of the library missing, m is the number of colonies collected and n is the library size. This […]
covered. Library DNA quality was assessed by sequencing both the DNA pool and a number of single colonies to show degenerate codons in the correct positions in the pool and to show a diversity of library members from single colonies. The pool of library DNA was transformed into BL21 Gold cells already containing pES300d-TRE-mDHFR and […]
(§1) µM) alongside ampicillin, kanamycin and chloramphenicol to maintain the required plasmids, and IPTG (1 mM) to induce protein expression. The library transformants were […]
however a lower stringency is used initially before selection is increased in later steps.
Colonies from this first round of selection were pooled and serially grown in liquid culture at starting OD600 of 0.05 and grown at 37°C with shaking at 200 rpm until the OD600 […]
increased to the optimum 4 µM in subsequent passages. Bacteria containing the most effective functional antagonists were expected to produce higher levels of TRE-mDHFR which provides a growth advantage, and these will dominate the culture. At each passage step, a sample of the culture was plated on LB agar (supplemented with antibiotics to maintain plasmids) to select and sequence individual colonies, and a DNA pool was also sequenced. This allows the occurrence of library members to be monitored as winner sequences are selected for. Assay Validation experiments utilised a modified assay methodology whereby overnight cultures from glycerol stocks of the Control Strains (Figure S6) were diluted to OD600=0.5 and 50 µL was plated on a selective M9 minimal […]

TRE-mDHFR = test: DHFR activity assay (NADPH turnover at 340 nm), TRE-mDHFR; assay type: biochemical, murine
Procedure: (§2) (A) Fifteen TRE sites were introduced into the mDHFR gene (2 silent and 13 substitutions) to allow for a cJun-induced transcriptional block. […] Change in absorbance at 340 nm was measured to determine the rate of NADPH turnover by (B) WT-mDHFR and (C) TRE-mDHFR with or without the substrate DHF. […] Specific activity was calculated from the linear initial rate (first 2.5 min for WT-mDHFR, first 10 min for TRE-mDHFR; +NADPH only reaction blank subtracted). Data are averages from triplicate experiments with errors shown as one standard deviation.
(§3) Jupiter Proteo column (4-μm particle size, 90 Å pore size, 250 × 10 mm; Phenomenex) using a water:acetonitrile gradient (0.1% TFA). Peptides without a SUMO tag, were concentrated after Histrap elution and HPLC purified. […]
(§4) or Mtx (1 µM in reaction). Reactions were initiated by the addition of DHF (50 µM in reaction plus a blank reaction with no DHF) and the absorbance at 340 nm of samples was measured using a Varian Cary 50 UV-Vis spectrophotometer. The specific activity (∆OD/minsample― ∆OD/minblank) was calculated using the following equation. Specific activity = 12.3× mg protein Library Construction and TBS Assay: Library inserts were produced using PCR fill-in reactions from synthesised primers (Sigma) with degenerate codons at the desired positions to produce the correct residue options. […]

WT-mDHFR = test: DHFR activity assay (NADPH turnover at 340 nm), WT-mDHFR; assay type: biochemical, murine
Procedure: as §2, §3, §4

cJun/TRE DNA interaction = target: T1, cJun/TRE DNA interaction (Homo sapiens, UniProt P05412); test: CD TRE DNA peak shift, antagonism of cJun/TRE DNA interaction; assay type: biochemical; details: cJun 20 μM, TRE DNA 5 μM, DNA peak ~281 nm, Hill equation; three independent experiments, one SD; pH 7.4
T1 construct: The human cJun bZIP domain spans from Arg252 to Leu308; His-SUMO (N, cleaved yes); AS cap (two residues Ala-Ser) (N); GAP cap (three residues Gly-Ala-Pro) (C); made in house; host or cells: E. coli (pET21-His-SUMO plasmid)
T1 sequence (P05412 252-308): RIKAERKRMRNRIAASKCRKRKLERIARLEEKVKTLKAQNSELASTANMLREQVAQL
Procedure: The binding of cJun to TRE DNA can be observed by monitoring a DNA absorbance peak in the CD spectrum centered at ∼281 nm.[44] […] The addition of cJun (20 μM) to TRE DNA (5 μM) decreases this DNA peak by 55% as the cJun engages its target TRE site and alters the DNA structure (Figure 6A). Subsequent titration of HingeW into this bound cJun/TRE DNA mixture reverses the peak shift, with the peak increasing as DNA is released.
Figure 6 HingeW antagonizes cJun/TRE DNA interaction more effectively than A-FosW. (A) CD spectra showing a shift in the TRE DNA peak at ∼281 nm upon addition of cJun, which is reversed by the titration of HingeW into the sample, as HingeW sequesters the cJun in a nonfunctional heterodimer. […] EMSA showing the (C) unbound TRE DNA band shift upon addition of cJun and the subsequent restoration of the unbound DNA band intensity upon titration of either (D) HingeW or (E) A-FosW. (F). For both CD and EMSA, data was averaged from three independent experiments and the plotted error bars indicate one standard deviation. […]
as §1
increased to the optimum 4 µM in subsequent passages. […] This allows the occurrence of library members to be monitored as winner sequences are selected for. […]

Question: Which “effect of cJun LZ (DBD deleted) on colony formation” value ([1]; TRE-mDHFR + cJun LZ vs TRE-mDHFR only, P = 0.1) does the source give for “cJun LZ: cJun LZ only construct in which the 25 residue DBD was deleted; Ile277 to Leu308 (IARLEEKVKTLKAQNSELASTANMLREQVAQL; UniProt P05412 277-308, looked up, fragment) [reference compound]” here?
Answer: did not affect bacterial colony formation

Question: With “cFos LZ: human cFos leucine zipper domain, Thr162 to Leu193 [reference compound]” as the compound, how does the “restoration of colony numbers of transcriptionally blocked cells” value ([1]; TRE-mDHFR + cJun bZIP + peptide vs TRE-mDHFR + cJun bZIP, M9 + TMP + IPTG, P > 0.05) read?
Answer: no significant increase in colony numbers

Question: How did the “inhibition by MTX” value (TRE-mDHFR) turn out when `CN(Cc1cnc2nc(N)nc(N)c2n1)c1ccc(C(=O)N[C@@H](CCC(=O)O)C(=O)O)cc1` [MTX, methotrexate, reference compound] was run?
Answer: clear inhibition of the reaction

Question: What about the “inhibition by MTX” value (WT-mDHFR) of the same compound?
Answer: clear inhibition of the reaction

Question: How did the IC50 (cJun/TRE DNA interaction) turn out when “MASLDELQAEIEQLEERNYALRKEIEDLQKQLEKLGAPHHHHHH [FosW, reference compound]” was run?
Answer: 119.8 ± 1.1 µM
